In patent publication US9382288B2, “Derivatives of steroid benzylamines, having an antiparasitic antibacterial, antimycotic and/or antiviral action” (Justus-Liebig-Universitat Giessen, priority 2010, dated 2016):
≈ marks a conversion by molar mass, not a printed value. Where “and” joins values, the source holds several entries; their conditions need not be identical. Equal entries are not always repeated. Entries after “also recorded” stand apart in the source; their conditions may differ. Where two headings read alike, the source gives them in different places.

What was measured:
[1] = system: Trypanosoma brucei brucei S427; assay: In vitro efficacy against Trypanosoma brucei; type: cell-based
Experimental: Compounds 18 and 41 were assessed at the London School of Hygiene and Tropical Medicine in vitro with respect to their efficacy against the parasite Trypanosoma brucei brucei […].

[2] = system: P. falciparum strain 3D7-Netherlands; assay: In vitro IC50, 3H-hypoxanthine incorporation, P. falciparum 3D7; type: cell-based, Plasmodium falciparum; settings: Plasmodium falciparum
[3] = system: adult S. mansoni; assay: In vitro treatment of adult S. mansoni couples, visual evaluation by microscope; set-up: species or system Schistosoma mansoni
Experimental: Compounds 2, 18 and 41 were tested by Prof. Dr. Grevelding, Parasitology, Veterinary Medicine, University of Gieβen, also in the parasite Schistosoma mansoni. […] Each test was performed with 3 groups of 10 worms each. Remarkable was that different effects on the worms with respect to morphological alterations could be observed. […] Exemplarily shown in FIGS. 1 and 2 is an image of a control assay and an image of trematodes after 48 hours of incubation with compound 18.
Each one of the three groups (one group per well) comprised 10 pairs of adult S. mansoni were incubated with the substance to be tested for 24 h. As control served three groups which were incubated with medium (M199) and three groups which were incubated with medium and DMSO as solvent of the test substances. Evaluation was done visually using a microscope.
In a second experimental setting, again three groups each (one group per well) with 8 pairs of adult S. mansoni each were incubated with the compound to be tested, however for 48 h in this experiment. As control served three groups which were either incubated with medium (M199) or medium and DMSO as solvent of the test substances. Evaluation was done visually using a microscope.

[4] = system: Plasmodium falciparum strain K1; assay: In vitro IC50, 3H-hypoxanthine incorporation, P. falciparum K1; type: cell-based; settings: chloroquine-resistant Plasmodium falciparum strain K1
[5] = system: L929; assay: Antiproliferative activity L929; type: cell-based; settings: Mus musculus, read-out: IC50 [μg/ml] Antiproliferative activity L929
[6] = system: Plasmodium berghei GFP MRA-865; assay: Plasmodium berghei infection in the mouse model (in vivo); settings: for life span in words: all dosages and routes of administration tested; for Activity (%): parasitemia day 4 vs untreated controls
[7] = system: K562; assay: Antiproliferative activity K562; type: cell-based; settings: Homo sapiens, read-out: IC50 [μg/ml] Antiproliferative activity K562
[8] = Cytotoxicity HeLa; settings: human, HeLa cells
[9] = 3D7, read-out: IC50 [ng/ml] P.f.(3D7)
[10] = P. falciparum strain 3D7, read-out: IC50 [nM] P.f.(3D7)
[11] = 24 hours, 100 μM, 3 groups of 10 pairs
[12] = 48 hours, 20 μM, 3 groups of 8 pairs
[13] = 48 hours, 100 μM, 3 groups of 8 pairs

COc1ccc2c(c1)CCC1C2CC[C@@]2(C)C1CC[C@@H]2NCc1cc2ccccc2cc1O (stereo partly drawn) [Compound 18, 17β-[(3-Hydroxynaphth-2-yl)-methylamino]-3-methoxy-estra-1,3,5(10)-triene]
IC50 [1]: 930 nM
IC50 [2, 9]: 3.1 ng/mL
IC50 [2, 10]: 7 nM
morphological alterations of the worms [3]: ventral bending
egg production ([3]; 24 hours, 20 μM): Almost no eggs were detectable
motility / vitality ([3]; 24 hours, 20 μM): Males barely moved and showed only twitching
couples detectable ([3]; 24 hours, 20 μM, 3 groups of 10 pairs): no couples could be detected
egg production ([3]; 24 hours, 100 μM): Almost no eggs were detectable
motility / vitality ([3]; 24 hours, 100 μM): The trematodes rarely showed slightly twitching movements
couples detectable [3, 11]: no couples could be detected
egg production ([3]; 48 hours, 20 μM): No eggs were detectable
motility / vitality ([3]; 48 hours, 20 μM): all worms were dead
couples detectable [3, 12]: no couples could be observed in any of the groups
egg production ([3]; 48 hours, 100 μM): No eggs were detectable
motility / vitality ([3]; 48 hours, 100 μM): all worms were dead
couples detectable [3, 13]: no couples could be observed in any of the groups

COc1ccc2c(c1)CCC1C2CC[C@@]2(C)C1CC[C@H]2NCc1cc2ccccc2cc1O (stereo partly drawn) [Compound 41, 17α-[(3-Hydroxy-naphth-2-yl)-methylamino]-3-methoxy-estra-1,3,5(10)-triene]
IC50 [1]: 3580 nM
IC50 [2, 9]: 1.9 ng/mL
IC50 [2, 10]: 4.4 nM
morphological alterations of the worms [3]: dorsal bending
egg production ([3]; 24 hours, 20 μM): Almost no eggs could be detected; also recorded: Almost no eggs were detectable
motility / vitality ([3]; 24 hours, 20 μM): Males barely moved and showed only twitching; also recorded: Trematodes moved only slightly and with twitching movements
egg production ([3]; 24 hours, 100 μM): Almost no eggs could be detected
motility / vitality ([3]; 24 hours, 100 μM): Males showed almost no motility
couples detectable [3, 11]: only in one of the groups a couple was detectable
egg production ([3]; 48 hours, 20 μM): No eggs were produced
motility / vitality ([3]; 48 hours, 20 μM): Single trematodes showed slightly twitching movements, while the rest was non-motile
couples detectable [3, 12]: no couples could be observed in any of the groups
egg production ([3]; 48 hours, 100 μM): No eggs were detectable
motility / vitality ([3]; 48 hours, 100 μM): Some of the worms were already dead, while others were dying
couples detectable [3, 13]: no couples could be observed in any of the groups

COc1ccc2c(c1)CCC1C2CC[C@@]2(C)C1CC[C@@H]2NCc1ccccc1O (stereo partly drawn) [Compound 1, 17β-(2-Hydroxyphenyl-methylamino)-3-methoxy-estra-1,3,5(10)-triene]
IC50 [4]: 73 nM
IC50 [5]: 2.2 µg/mL (≈ 5.62 µM)
life span in words [6]: considerably extended the life span
MSD (days) ([6]; oral 3 × 100 mg/kg): 16.3 (n = 3) days
Activity (%) ([6]; oral 3 × 100 mg/kg): 99%
MSD (days) ([6]; sc 3 × 10 mg/kg): 10.2 (n = 3) days
Activity (%) ([6]; sc 3 × 10 mg/kg): 47%
MSD (days) ([6]; sc 3 × 30 mg/kg): 15 (n = 3) days
Activity (%) ([6]; sc 3 × 30 mg/kg): 94%
IC50 [7]: 0.8 µg/mL (≈ 2.04 µM)
IC50 [8]: 11 µM and 4.3 µg/mL
IC50 [2, 10]: 50 nM
IC50 ([2]; P. falciparum strain 3D7, read-out: IC50 [ng/ml] P.f.(3D7)): 19.8 ng/mL

COc1ccc2c(c1)CCC1C2CC[C@@]2(C)C1CC[C@H]2NCc1ccccc1O (stereo partly drawn) [Compound 2, 17α-(2-Hydroxyphenyl-methylamino)-3-methoxy-estra-1,3,5(10)-triene]
IC50 [5]: 1.9 µg/mL (≈ 4.85 µM)
life span in words [6]: considerably extended the life span
MSD (days) ([6]; oral 3 × 10 mg/kg): 8.7 (n = 3) days
Activity (%) ([6]; oral 3 × 10 mg/kg): 46.8%
MSD (days) ([6]; oral 3 × 30 mg/kg): 13 (n = 3) days
Activity (%) ([6]; oral 3 × 30 mg/kg): 99.4%
MSD (days) ([6]; oral 3 × 100 mg/kg): 15.33 (n = 3) days
Activity (%) ([6]; oral 3 × 100 mg/kg): 99.7%
MSD (days) ([6]; sc 3 × 10 mg/kg): 7 (n = 3) days
Activity (%) ([6]; sc 3 × 10 mg/kg): 17.7%
MSD (days) ([6]; sc 3 × 30 mg/kg): 14 (n = 3) days
Activity (%) ([6]; sc 3 × 30 mg/kg): 61.8%
IC50 [7]: 0.5 µg/mL (≈ 1.28 µM)
IC50 [8]: 3.1 µg/mL (≈ 7.92 µM)
IC50 [2, 9]: 2.9 ng/mL
IC50 [2, 10]: 7.4 nM
morphological alterations of the worms [3]: ventrally curved in a cork-screw like manner
egg production ([3]; 24 hours, 100 μM): Almost no eggs were detectable
motility / vitality ([3]; 24 hours, 100 μM): Trematodes moved only slightly and with twitching movements
couples detectable [3, 11]: in two of the groups each one couple was detected
egg production ([3]; 48 hours, 20 μM): No eggs were detectable
motility / vitality ([3]; 48 hours, 20 μM): The trematodes barely moved
couples detectable [3, 12]: no couples could be observed in any of the groups
egg production ([3]; 48 hours, 100 μM): No eggs were detectable
motility / vitality ([3]; 48 hours, 100 μM): All trematodes were dead
couples detectable [3, 13]: no couples could be observed in any of the groups
